{
  "source": "patent US20200345002A1",
  "about": "“COMPOSITIONS AND METHODS FOR INDUCING CROP CHANGES BY LEVERAGING THE EFFECTS OF AN APPLIED AGRICULTURAL CHEMICAL” (ADVANCED BIOLOGICAL MARKETING, INC., priority 2017, published 2020)",
  "system": "weedy target",
  "assay": "Greenhouse Paraquat spray on weedy target",
  "format": "in vivo",
  "conditions": "24 hours post spray",
  "excerpt": "Turning to FIG. 8, recovery of replicates of plants using compositions of the present invention is shown. The control is in the upper left and the remaining plants are colonized with single Trichoderma strains, with 3 replicate plants per strain.",
  "data": [
    {"smiles": "C[n+]1ccc(-c2cc[n+](C)cc2)cc1.[Cl-].[Cl-]", "note": "[Paraquat, N,N′-dimethyl-4,4′-bipyridinium dichloride]", "values": [
      {"measurement": "killing effect of the Paraquat application", "value": "complete killing effect"}
    ]}
  ]
}
